In patent publication US7507753B2, “Biaryl compound and use thereof” (Takeda Chemical Industries Ltd., priority 2001, dated 2009):
Counter-ions that a name gives are not always drawn.

biological target: T1, Human MC4R (Homo sapiens, UniProt P32245); test: [125I]-[Nle4,D-Phe7]-α-MSH binding inhibition in CHO/MC4R cells; conditions: test compound 10 μM, 100 pM [125I]-[Nle4,D-Phe7]-α-MSH, room temperature, 60 minutes
T1 construct: expressed in transfected cells; plasmid pMC4R in vector pMSR alpha neo
Experimental: (1) Cloning of Human MC4R
Cloning of MC4R gene was conducted from human brain cDNA by PCR method. Using 0.5 ng of brain cDNA (Clontech, Quick-lone cDNA) as a genetic template, primer sets prepared by referring to MC4R gene base sequence described in Birkenbach M. et al. (J. Virol, 67(4),2209-2220(1993)), i.e., primer-1: 5′-[…]-3′ [Sequence No.:1] and primer-2: 5′-[…]-3′ [Sequence No.:2] were added in amounts of 50 pmol, respectively, and, the PCR reaction was carried out using TaKaRa LA Taq(Takara Shuzo)in Gene Amp PCR System 9600 (Applied Biosystems)(Reaction conditions: 35 cycles of 95° C. for 1 minute, 62° C. for 1 minute, and 72° C. for 3 minutes).
(2) Preparation of Expression Plasmid for Human MC4R
After the PCR fragments obtained above were digested by restriction enzymes Eco RI (Takara Shuzo) and Sal I (Takara Shuzo), DNA fragments were collected by agarose gel electrophoresis. The DNA fragments and an expression plasmid for animal cells pMSR a neo (Japanese Unexamined Patent Application Publication No. 2000-281685, WO 00/44756), which was previously digested by Eco RI and Sal I, were mixed and ligated using a DNA Ligation Kit Ver. 2 (Takara Shuzo). Transformation of E. coli JM109 competent cells gave plasmid pMC4R.
(3) Introduction of the Expression Plasmid for Human MC4R into CHO-K1 Cells and Expression thereof
CHO-KI cells grown in 150 cm^2 of a cell culture flask (Corning Costar) using Ham F12 medium (GIBCO BRL) containing 10% fetal bovine serum (GIBCO BRL) were collected by using 0.5 g/L trypsin-0.2 g/L EDTA (GIBCO BRL). The cells were washed with PBS (GIBCO BRL), centrifuged (1000 rpm, 5 minutes), and were suspended in PBS. Then, the DNA was introduced into the cells using Gene Pulser (BioRad) according to the following conditions. Namely, 1×10^7 cells and 15 μg of human MC4R expression plasmid pMC4R were placed in a 0.4-cm gap cuvette, and the mixture was electropolated under 0.25 kV of electric voltage, and 960 μF of capacitance. Cells were then transferred to Ham F12 medium containing 10% fetal bovine serum. After incubation for 24 hours, cells were collected, centrifuged, and suspended in Ham F12 medium containing 10% fetal bovine serum and Geneticin (GIBCO BRL) at a concentration of 500 μg/ml. Cells were diluted to a concentration of 10^4 cells/ml, and inoculated in 96-well plate (Corning Costar) to obtain Geneticin-resistant strains.
The Geneticin-resistant strains were grown in 96-well plates (OPAQUE PLATE 3917, Costar), and MC4R-expressing cells were selected from the resistant strains. Namely, in an assay buffer (20 mM HEPES (Dojindo Laboratories, Inc.), 0.5% BSA, 0.05% NaN3) containing 200 pM [^125I]-[Nle4,D-Phe7]-α-Melanocyte Stimulating Hormone (Daiichi Pure Chemicals Co., Ltd.), the cells were subjected to binding reaction at room temperature for 60 minutes. After the assay buffer was removed by inspiration, the cells were washed with ice-cooled PBS, and then stirred after adding 100 μl/well of MicroScint-20 (Packard Industry Company, Inc.) to each well. Subsequently, the cells were counted for radioactivity using a Top Count (Packard) to select CHO/MC4R strains, the cells to which [^125I]-[Nle4,D-Phe7]-α-Melanocyte Stimulating Hormone bound specifically. […]
The CHO/MC4R strains were inoculated in 96 well microplate at a concentration of 1×10^4 cells/well, and grown for 72 hours. […] Then, 100 μl MicroScint 20 (Packerd) was added to each well, and the radioactivity of each well was measured by Top Count (Packard). […]

T1 sequence (P32245 whole entry): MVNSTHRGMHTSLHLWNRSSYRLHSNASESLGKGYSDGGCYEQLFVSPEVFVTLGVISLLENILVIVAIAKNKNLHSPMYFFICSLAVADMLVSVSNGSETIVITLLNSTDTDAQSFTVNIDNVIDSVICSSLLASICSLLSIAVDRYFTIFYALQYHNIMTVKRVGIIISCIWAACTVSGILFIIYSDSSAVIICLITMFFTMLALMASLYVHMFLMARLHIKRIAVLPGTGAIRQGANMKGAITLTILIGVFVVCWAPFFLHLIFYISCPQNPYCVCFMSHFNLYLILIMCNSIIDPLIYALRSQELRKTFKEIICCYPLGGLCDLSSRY

Binding Inhibitory Ratio [%] | SMILES
97 | CC(c1cccc(-c2ccccc2C(=O)NCCN)c1)N(C(=O)Cc1ccc(Cl)cc1)C1CCN(Cc2ccccc2)CC1 (centres unmarked) [Example 3, N-(2-aminoethyl)-3′-[1-{N-(1-benzylpiperidin-4-yl)-N-(4-chlorophenylacetyl)amino}ethyl][1,1′-biphenyl]-2-carboxamide dihydrochloride]
92 | CC(c1cccc(-c2ccccc2C(=O)NCCN)c1)N(C(=O)Cc1cccc(Cl)c1)C1CCN(Cc2ccccc2)CC1 (centres unmarked) [Example 4, N-(2-aminoethyl)-3′-[1-(N-(1-benzylpiperidin-4-yl)-N-(3-chlorophenylacetyl)amino}ethyl][1,1′-biphenyl]-2-carboxamide dihydrochloride]
100 | CC(c1cccc(-c2ccccc2C(=O)NCCN)c1)N(C(=O)Cc1ccc(Cl)c(Cl)c1)C1CCN(Cc2ccccc2)CC1 (centres unmarked) [Example 9, N-(2-aminoethyl)-3′-[1-{N-(1-benzylpiperidin-4-yl)-N-(3,4-dichlorophenylacetyl)amino}ethyl][1,1′-biphenyl]-2-carboxamide dihydrochloride]

Continued, molecule first:

SMILES | Binding Inhibitory Ratio [%]
CC(c1cccc(-c2ccccc2C(=O)NCCN)c1)N(C(=O)Cc1ccc2ccccc2c1)C1CCN(Cc2ccccc2)CC1 (centres unmarked) [Example 1, N-(2-aminoethyl)-3′-[1-{N-(1-benzylpiperidin-4-yl)-N-(2-naphthylacetyl)amino}ethyl][1,1′-biphenyl)-2-carboxamide dihydrochloride] | 96
CC(c1cccc(-c2ccccc2C(=O)NCCN)c1)N(C(=O)Cc1ccc(Br)cc1)C1CCN(Cc2ccccc2)CC1 (centres unmarked) [Example 2, N-(2-aminoethyl) -3′-[1-{N-(1-benzylpiperidin-4-yl)-N-(4-bromophenylacetyl)amino}ethyl][1,1′-biphenyl]-2-carboxamide dihydrochloride] | 97
